Measured values published in patent publication US5466673A, “Method of inhibiting calcium precipitation in an intraocular irrigating solution” (Senju Pharmaceutical Co., Ltd., priority 1993, dated 1995).

Tested on: blood-aqueous barrier of the eye
Experiment: Effect of the present compound on the blood-aqueous barrier of the eye (anterior chamber irrigation, carboxy-fluorescein leakage)
Format: in vivo, White rabbits
Conditions: mean ± S.E.
Description: White rabbits weighing about 2.5 kg were used.
Physiological saline, 0.06, 0.6 and 6 mM solutions of DCE-GS in physiological saline, and a 0.3 mM solution of GSSG (oxidized glutathione)in physiological saline were used as intraocular irrigating solutions and their effects on the blood-aqueous barrier of the eye were evaluated.
Two 23 G needles connected to a polyethylene tube were gently inserted into the anterior chamber of the eye of rabbits under anesthesia (ketamine hydrochloride: xylazine hydrochloride=1:1) and 0.5 ml/kg of 1% carboxy-fluorescein was injected into the auricular vein immediately before irrigation. Using a syringe pump, the intraocular irrigating solution was infused at the rate of 1.5 ml/min. and 25 μl of the outflowing intraocular irrigating solution and the blood were respectively collected at 15-minute intervals over the period of 1 hour and the intensity of florescence of each sample was determined with a spectrophotofluorometer. The collected blood was mixed with 2.5 ml of physiological saline and the mixture was centrifuged at 3000 rpm to separate the supernatant for use as a sample.
The degree (4) of protein leakage was calculated by means of the following equation. (Intensity of fluorescence of irrigating solution/intensity of fluorescence of blood)×100 (%)

| Molecule | degree of protein leakage (0.3 mM in physiological saline, time 15 min, n 5) | degree of protein leakage (0.3 mM in physiological saline, time 30 min, n 5) | degree of protein leakage (0.3 mM in physiological saline, time 45 min, n 5) | degree of protein leakage (0.3 mM in physiological saline, time 60 min, n 5) | degree of protein leakage (0.06 mM in physiological saline, irrigation 1.5 ml/min, time 15 min, n 7) | degree of protein leakage (0.06 mM in physiological saline, time 30 min, n 7) | degree of protein leakage (0.06 mM in physiological saline, time 45 min, n 7) | degree of protein leakage (0.06 mM in physiological saline, time 60 min, n 7) | degree of protein leakage (0.6 mM in physiological saline, time 15 min, n 8) | degree of protein leakage (0.6 mM in physiological saline, time 30 min, n 8) | degree of protein leakage (0.6 mM in physiological saline, time 45 min, n 8) | degree of protein leakage (0.6 mM in physiological saline, time 60 min, n 8) | degree of protein leakage (6 mM in physiological saline, time 15 min, n 5) | degree of protein leakage (6 mM in physiological saline, time 30 min, n 5) | degree of protein leakage (6 mM in physiological saline, time 45 min, n 5) | degree of protein leakage (6 mM in physiological saline, time 60 min, n 5) |
| --- | --- | --- | --- | --- | --- | --- | --- | --- | --- | --- | --- | --- | --- | --- | --- | --- |
| oxidized glutathione [GSSG, reference compound] | 0.22 ± 0.03% | 0.17 ± 0.01% | 0.15 ± 0.03% | 0.15 ± 0.03% | – | – | – | – | – | – | – | – | – | – | – | – |
| N[C@@H](CCC(=O)N[C@@H](CSC(CC(=O)O)C(=O)O)C(=O)NCC(=O)O)C(=O)O (stereo partly drawn) [DCE-GS, S-(α,β-dicarboxyethyl) glutathione] | – | – | – | – | 0.16 ± 0.02% | 0.23 ± 0.05% | 0.11 ± 0.05% | 0.18 ± 0.03% | 0.13 ± 0.01% | 0.19 ± 0.02% | 0.15 ± 0.02% | 0.13 ± 0.02% | 0.13 ± 0.02% | 0.16 ± 0.02% | 0.22 ± 0.04% | 0.15 ± 0.02% |
